Data on 13 compounds can be found in ChEMBL document CHEMBL2069221, “Hybrid molecules of carvacrol and benzoyl urea/thiourea with potential applications in agriculture and medicine” (Bioorg Med Chem Lett, 2012).

SMILES strings stand for the structures. Values after ≈ are worked out from the molar mass of the structure shown.

The test system of data set [1] is Dysdercus koenigii. Kind of data set: Insecticidal activity against 5th instar nymph of Dysdercus koenigii assessed as mortality per nymph. The class given is functional.
The test system of data set [2] is Pyricularia grisea. Briefly: Antifungal activity against Magnaporthe grisea after 48 hrs by microbroth dilution method. The class given is functional. In general terms: Broth dilution looks for growth in wells or tubes with falling amounts of substance.
The subject of data set [3] is Fusarium oxysporum. Kind of data set: Antifungal activity against Fusarium oxysporum after 48 hrs by microbroth dilution method. The class given is functional.
Data set [4] concerns Drechslera. Briefly: Antifungal activity against Dreschlera oryzae after 48 hrs by microbroth dilution method. The class given is functional.
The test system of data set [5] is Debaryomyces hansenii. Briefly: Antifungal activity against Debaryomyces hansenii after 48 hrs by microbroth dilution method. The class given is functional.
The nature of data set [6]: Antifungal activity against Pichia membranifaciens after 48 hrs by microbroth dilution method. The class given is functional.
Data set [7] relates to Candida albicans. Briefly: Antifungal activity against Candida albicans NCIM 3557 after 48 hrs by microbroth dilution method. The class given is functional.
The subject of data set [8] is Candida albicans. Briefly: Antifungal activity against Candida albicans after 48 hrs by microbroth dilution method. The class given is functional.
Data set [9] relates to Candida albicans. Briefly: Antifungal activity against Candida albicans NCIM 3471 after 48 hrs by microbroth dilution method. The class given is functional.
The test system of data set [10] is Nakaseomyces glabratus. Briefly: Antifungal activity against Candida glabrata NCIM 3237 after 48 hrs by microbroth dilution method. The class given is functional.
In data set [11] the test system is Cryptococcus neoformans. Briefly: Antifungal activity against Cryptococcus neoformans after 48 hrs by microbroth dilution method. The class given is functional.
Data set [12] relates to Cryptococcus neoformans. Briefly: Antifungal activity against Cryptococcus neoformans NCIM 3541 after 48 hrs by microbroth dilution method. The class given is functional.
The subject of data set [13] is Cryptococcus neoformans. Briefly: Antifungal activity against Cryptococcus neoformans NCIM 3542 after 48 hrs by microbroth dilution method. The class given is functional.
The test system of data set [14] is Cryptococcus neoformans. Kind of data set: Antifungal activity against Cryptococcus neoformans NCIM 3378 after 48 hrs by microbroth dilution method. The class given is functional.
Data set [15] can be described thus: Toxicity in RBC assessed as induction of hemolysis. The class given is cell-based, Erythrocyte. Conditions: red blood cells (RBC).
Data set [16] can be described thus: Toxicity in RBC assessed as induction of hemolysis at MIC. Conditions: red blood cells (RBC); read-out: Activity. The class given is cell-based, Erythrocyte.

One may read the MIC as the smallest concentration in the dilution series that meets the test's criterion for growth inhibition. A low value points to greater potency. A word on the HC50: it is the concentration that lyses half of the red blood cells. With `Cc1cc(NC(=S)NC(=O)c2ccccc2Cl)c(C(C)C)cc1O`, the LD50 in data set [1] turned out to be 13 µg. In addition, the MIC in data set [2] was greater than 512 µg/mL; in [3], greater than 512 µg/mL; in [4], greater than 512 µg/mL; in data set [5], greater than 512 µg/mL; in data set [6] it was 512 µg/mL (≈ 1410 µM). Further, the GI in data set [7] is 64 µg/mL; in [8], 64 µg/mL; in [9], greater than 512 µg/mL; in data set [10], 64 µg/mL; in data set [11], 128 µg/mL; in data set [12], 32 µg/mL. The GI in [13] was 64 µg/mL; in data set [14], greater than 512 µg/mL. Besides, the HC50 in [15] is greater than 1000 µg/mL. Also, the hemolysis in data set [16] was less than 2%.

For the compound `Cc1cc(NC(=S)NC(=O)c2ccccc2)c(C(C)C)cc1O`, the LD50 in data set [1] is 23.6 µg. Further, the MIC in data set [2] is greater than 512 µg/mL; in [3] it was greater than 512 µg/mL; in data set [4], greater than 512 µg/mL; in data set [5], greater than 512 µg/mL; in [6] it was 512 µg/mL (≈ 1560 µM). Also, the GI in [7] was 128 µg/mL; in data set [8], 32 µg/mL; in data set [9], greater than 512 µg/mL; in data set [10], 32 µg/mL; in data set [11], 64 µg/mL; in data set [12], 16 µg/mL. Besides, the GI in data set [13] turned out to be 32 µg/mL; in [14] it was 128 µg/mL. For the same compound, the HC50 in data set [15] is greater than 1000 µg/mL. In data set [16], the hemolysis was less than 2%.

`Cc1cc(NC(=O)NC(=O)c2ccc(Cl)cc2)c(C(C)C)cc1O`: in data set [1], the LD50 amounted to 18 µg. In addition, the minimum inhibitory concentration (MIC) in [2] worked out at 512 µg/mL (≈ 1480 µM); in data set [3], 256 µg/mL (≈ 738 µM); in data set [4], 128 µg/mL (≈ 369 µM); in [5] it was 128 µg/mL (≈ 369 µM); in [6], 256 µg/mL (≈ 738 µM). Also, the GI is 64 µg/mL in [7]; 32 µg/mL in data set [8]; greater than 512 µg/mL in data set [9]; 32 µg/mL in data set [10]; 64 µg/mL in data set [11]; 32 µg/mL in data set [12]. Further, the GI in [13] and in [14] was 32 µg/mL in each case. Besides, in data set [15], the HC50 is greater than 1000 µg/mL. Also, the hemolysis in data set [16] was less than 2%.

With `Cc1cc(NC(=O)NC(=O)c2ccccc2F)c(C(C)C)cc1O`, the LD50 in data set [1] was 12.5 µg. For the same compound, the minimal inhibitory concentration (MIC) in data set [2], in [3], in data set [4], in [5] and in [6] was greater than 512 µg/mL in each case. In addition, the GI in [7] was greater than 512 µg/mL; in data set [8] it was 16 µg/mL; in [9], 32 µg/mL; in [10] it was 16 µg/mL; in data set [11] it was greater than 512 µg/mL; in data set [12] it was less than 4 µg/mL. For the same compound, the GI in data set [13] and in [14] was 16 µg/mL in each case. In [15], the HC50 was greater than 1000 µg/mL. In addition, the hemolysis in [16] was less than 2%.

For `Cc1cc(NC(=O)NC(=O)c2ccc(F)cc2)c(C(C)C)cc1O`, in data set [1], the LD50 amounted to 14.9 µg. The MIC in data set [2], in [3], in data set [4], in data set [5] and in [6] was greater than 512 µg/mL each time. The GI in data set [7] is greater than 512 µg/mL; in data set [8], 16 µg/mL; in [9], 32 µg/mL; in data set [10], 16 µg/mL; in data set [11], greater than 512 µg/mL; in data set [12], less than 4 µg/mL. For the same compound, the GI in data set [13] and in [14] was 16 µg/mL in each case. The HC50 in [15] is greater than 1000 µg/mL. The hemolysis in data set [16] is less than 2%.

As to `Cc1cc(NC(=S)NC(=O)c2ccccc2F)c(C(C)C)cc1O`, the LD50 in data set [1] turned out to be 12.6 µg. In addition, the MIC was 256 µg/mL (≈ 739 µM) in data set [2]; 128 µg/mL (≈ 369 µM) in [3]; greater than 512 µg/mL in data set [4]; 256 µg/mL (≈ 739 µM) in data set [5]; greater than 512 µg/mL in [6]. Moreover, the GI in data set [7] was 128 µg/mL; in [8] it was 128 µg/mL; in data set [9] it was greater than 512 µg/mL; in data set [10], 128 µg/mL; in [11] it was 32 µg/mL; in [12] it was 64 µg/mL. Besides, the GI in data set [13] came to 128 µg/mL; in [14], 512 µg/mL. The concentration for 50% haemolysis (HC50) in [15] is greater than 1000 µg/mL. The hemolysis in data set [16] was less than 2%.

With `Cc1cc(NC(=O)NC(=O)c2ccccc2)c(C(C)C)cc1O`, the LD50 in data set [1] was 21.5 µg. The minimum inhibitory concentration (MIC) in data set [2], in [3], in data set [4], in [5] and in [6] was greater than 512 µg/mL each time. In addition, the GI is 512 µg/mL in data set [7]; greater than 512 µg/mL in [8]; greater than 512 µg/mL in [9]; greater than 512 µg/mL in [10]; greater than 512 µg/mL in data set [11]; greater than 512 µg/mL in data set [12]. The GI in data set [13] was 256 µg/mL; in data set [14], greater than 512 µg/mL. Also, the HC50 in [15] was greater than 1000 µg/mL. Also, the hemolysis in [16] is less than 2%.

Regarding `Cc1cc(NC(=S)NC(=O)c2c(F)cccc2F)c(C(C)C)cc1O`, the LD50 in data set [1] amounted to 11.3 µg. The MIC is greater than 512 µg/mL in data set [2]; greater than 512 µg/mL in [3]; 256 µg/mL (≈ 702 µM) in [4]; 128 µg/mL (≈ 351 µM) in [5]; greater than 512 µg/mL in data set [6]. Further, the GI in data set [7] was 256 µg/mL; in data set [8], 64 µg/mL; in [9], greater than 512 µg/mL; in [10], 64 µg/mL; in [11], 512 µg/mL; in data set [12], 32 µg/mL. Further, the GI in data set [13] stood at 64 µg/mL; in [14], 128 µg/mL. For the same compound, in [15], the HC50 is greater than 1000 µg/mL. Moreover, the hemolysis in data set [16] was less than 2%.

For the compound `Cc1cc(NC(=S)NC(=O)c2ccc(Cl)cc2)c(C(C)C)cc1O`, the LD50 in data set [1] amounted to 20.8 µg. In addition, the MIC in data set [2] was 256 µg/mL (≈ 705 µM); in [3], 128 µg/mL (≈ 353 µM); in data set [4] it was greater than 512 µg/mL; in data set [5], 256 µg/mL (≈ 705 µM); in data set [6], 512 µg/mL (≈ 1410 µM). Besides, the GI came out at 64 µg/mL in data set [7]; 16 µg/mL in [8]; 32 µg/mL in [9]; 32 µg/mL in data set [10]; 64 µg/mL in [11]; 8 µg/mL in [12]. In addition, the GI in [13] and in [14] was 32 µg/mL throughout. In addition, the HC50 in data set [15] was greater than 1000 µg/mL. Besides, in data set [16], the hemolysis is less than 2%.

For `Cc1cc(NC(=O)NC(=O)c2ccccc2Cl)c(C(C)C)cc1O`, the LD50 in [1] was 16.4 µg. For the same compound, the MIC in [2] is greater than 512 µg/mL; in data set [3], 512 µg/mL (≈ 1480 µM); in [4], 256 µg/mL (≈ 738 µM); in [5], 128 µg/mL (≈ 369 µM); in data set [6], 256 µg/mL (≈ 738 µM). Also, the GI is 128 µg/mL in data set [7]; 256 µg/mL in data set [8]; greater than 512 µg/mL in [9]; greater than 512 µg/mL in data set [10]; 256 µg/mL in data set [11]; 256 µg/mL in data set [12]. In addition, the GI in data set [13] and in data set [14] was 128 µg/mL throughout. For the same compound, the HC50 in data set [15] was greater than 1000 µg/mL. The hemolysis in data set [16] was less than 2%.

`C[C@@H]1[C@H](O)[C@@H](C)/C=C/C=C/C=C/C=C/C=C/C=C/C=C/[C@H](O[C@@H]2O[C@H](C)[C@@H](O)[C@H](N)[C@@H]2O)C[C@@H]2O[C@](O)(C[C@@H](O)C[C@@H](O)[C@H](O)CC[C@@H](O)C[C@@H](O)CC(=O)O[C@H]1C)C[C@H](O)[C@H]2C(=O)O` [AMPHOTERICIN B]: the concentration for 50% haemolysis (HC50) in [15] amounted to 8 µg/mL.

On to `O=C(NC(=O)c1c(F)cccc1F)Nc1cc(Cl)c(OC(F)(F)C(F)C(F)(F)F)cc1Cl` (stereo unspecified) [LUFENURON], for which the LD50 in data set [1] came out at 9 µg. The minimum inhibitory concentration (MIC) in [2], in data set [3], in data set [4], in data set [5] and in data set [6] was greater than 512 µg/mL in each case. The GI in data set [7], in data set [8], in data set [9], in data set [10], in data set [11] and in data set [12] was greater than 512 µg/mL in each case. For the same compound, the GI in data set [13] and in [14] was greater than 512 µg/mL each time. In addition, the HC50 in [15] is greater than 1000 µg/mL.

Consider `Cc1ccc(C(C)C)cc1O` [CARVACROL], for which the LD50 in data set [1] came to 33.3 µg. Besides, the MIC was found to be 128 µg/mL (≈ 852 µM) in data set [2]; 64 µg/mL (≈ 426 µM) in data set [3]; 64 µg/mL (≈ 426 µM) in data set [4]; 128 µg/mL (≈ 852 µM) in data set [5]; 128 µg/mL (≈ 852 µM) in data set [6]. Besides, the GI amounted to 128 µg/mL in data set [7]; 128 µg/mL in [8]; 256 µg/mL in data set [9]; 128 µg/mL in data set [10]; 128 µg/mL in [11]; 128 µg/mL in data set [12]. Moreover, the GI in [13] and in data set [14] was 128 µg/mL in each case. Also, the HC50 in data set [15] stood at 250 µg/mL.
